Test results as given in patent publication US20240043419A1, “CLASS OF 1,7-NAPHTHYRIDINE COMPOUNDS AND APPLICATION THEREOF” (Medshine Discovery Inc., priority 2020, published 2024).

What was measured:
[1] = test system: CHK1(p-Ser345); experiment: Assay of CHK1(p-Ser345) in vitro: inhibition of CHK1 phosphorylation in HT29 cells after 4NQO, alpha screen; type: cell-based; details: Homo sapiens, read-out: % Inhibition of CHKI phosphorylation; for inhibition at 0.0002 µM: HT-29, 0.2 nM compound; for inhibition at 0.025 µM: HT-29, 25 nM compound
Procedure: The assay process was as follows: • 1) When cells HT29 grew to about 80% confluence, the cells were digested and plated on a 96-well plate (80,000 cells/well), and 90 ul of cell suspension was added to each well; the cell plate was placed in a 5% carbon dioxide, 37° C. incubator overnight; • 2) The next day, the supernatant was removed from the cell plate, and 90 ul of compounds with different concentrations were added; the plate was incubated at 37° C. for 1 hour, and then 10 ul of 7 uM 4NQO medium was added; the plate was incubated at 37° C. for 1 hour; • 3) After the incubation was completed, the supernatant was removed, and 50 ul/well cell lysate was added; the plate was shaken and incubated at room temperature for 50 minutes; • 4) After the incubation was completed, 8 ul/well cell lysate was transferred to a 384-well detection plate, and 5 ul of Acceptor was added; the plate was incubated at room temperature for 2 hours; • 5) Then 2 ul of Donor was added, and the plate was incubated at room temperature overnight; • 6) After the incubation was completed, alpha screen reading was performed.

[2] = test system: tumor cell line LoVo; experiment: in vitro LoVo cell proliferation inhibition assay (CellTiter-Glo cell viability); type: cell-based; details: Homo sapiens, LoVo cells
Procedure: In this assay, the effect of the compounds on inhibiting cell proliferation was studied by detecting the effect of the compounds on the cell viability in vitro in the tumor cell line LoVo.
Cell viability detection using CellTiter-Glo luminescence assay
The following steps were performed according to the instructions of the Promega CellTiter-Glo Luminescent Cell Viability Detection Kit (Promega-G7573).
(1). A CellTiter-Glo buffer was thawed and allowed to stand to reach room temperature.
(2). A CellTiter-Glo substrate was allowed to stand to reach room temperature.
(3). The CellTiter-Glo buffer was added to the CellTiter-Glo substrate in a bottle to dissolve the substrate to formulate a CellTiter-Glo working solution.
(4). The working solution was vortexed slowly for fully dissolution.
(5). A cell culture plate was taken out and allowed to stand for 30 minutes to equilibrate to room temperature.
(6). 50 μL (equal to half the volume of cell culture solution in each well) of the CellTiter-Glo working solution was added into each well. The cell plate was wrapped with aluminum foil to protect the cell plate from light.
(7). The culture plate was shaken on an orbital shaker for 2 minutes to induce cell lysis.
(8). The culture plate was left at room temperature for 10 minutes to stabilize luminescent signals.
(9). The luminescent signals were detected on a plate reader (SpectraMax i3x of MolecμLar Devices).
The inhibition rate (IR) of the assay compounds was calculated by the following formula:
IR (%)=(1−(RLU of compound−RLU of blank control)/(RLU of vehicle control−RLU of blank control))*100%.
The inhibition rates of different concentrations of compounds were calculated in Excel, and then GraphPad Prism software was used to draw inhibition curves and calculate relevant parameters, including the minimum inhibition rate, maximum inhibition rate, and IC50.

[3] = Pharmacokinetics in vivo in mice, single intravenous or single oral administration, plasma LC-MS/MS; details: mouse, female Balb/c Nude mice
Procedure: The purpose of this assay is to study the pharmacokinetics of the compound of the present disclosure in the plasma of female Balb/c Nude mice after a single intravenous administration or a single oral administration.
In the intravenous group, plasma samples were collected at 9 time points of 5 minutes, 15 minutes, 30 minutes, 1 hour, 2 hours, 4 hours, 6 hours, 8 hours and 24 hours after administration; in the oral group, plasma samples were collected at 8 time points of 15 minutes, 30 minutes, 1 hour, 2 hours, 4 hours, 6 hours, 8 hours and 24 hours after administration; the samples were analyzed by LC-MS/MS for the plasma concentration data of the compound of the present disclosure, and the pharmacokinetic parameters, such as peak concentration, time to peak, clearance rate, half-life, maximum plasma drug concentration, area under the drug-time curve were calculated.

[4] = test system: subcutaneous xenograft tumor of human colorectal cancer LoVo cells; experiment: In vivo pharmacodynamics on subcutaneous xenograft tumor of human colorectal cancer LoVo cells in BALB/c nude mouse model; set-up: species or system BALB/c nude mice; details: oral 40 mg/kg, twice a day, 4 days on and 3 days rest per week, 21 days of administration
Procedure: In this assay, the inhibitory effect of the compound of the present disclosure on the growth of subcutaneous xenograft tumor of human colorectal cancer LoVo cells was studied at an oral dosage of 40 mg/kg, twice a day, with 4 consecutive days of administration and 3 days of rest per week.
Assay method: The selected assay animals (provided by Shanghai Sippe-Bk Lab Animal Co., Ltd.) were BALB/c nude mice, 6-8 weeks old, weighing 18-22 grams.
Human colon cancer LoVo cells were cultured in a single layer in vitro with a culture condition of Ham's F-12 medium plus 10% fetal bovine serum, 100 U/mL penicillin, 100 μg/mL streptomycin and 2 mM glutamine, 37° C., 5% CO2. Cells were routinely digested and passaged with trypsin-EDTA twice a week. When the cell saturation was 80%-90%, the cells were collected, counted and inoculated. 0.1 mL (10×10^6 cells) of LoVo cells were subcutaneously inoculated on the right back of each nude mouse, and the mice were grouped and administered when the average tumor volume reached 146 mm^3. Tumor diameters were measured twice a week with vernier calipers. The calculation formula of tumor volume was: V=0.5 a×b^2, wherein a and b represent the long and short diameters of tumor, respectively.
The antitumor efficacy of the compound was evaluated by TGI (%) or relative tumor proliferation rate T/C (%). TGI (%) reflected the inhibition rate of tumor growth. […]

Row | IC50 [2] [nM] | Structure (SMILES) | inhibition at 0.0002 µM [1] [%] | inhibition at 0.025 µM [1] [%] | further results
1 | 41 | Cc1cnccc1-c1cc(N2CCOC[C@H]2C)nc2c(-c3ccn[nH]3)ncc(F)c12 [Example 20] | 6.34 | 95.5 | 
2 | 99 | Cc1n[nH]c(C)c1-c1cc(N2CCOC[C@H]2C)nc2c(-c3ccn[nH]3)ncc(F)c12 [Example 17] |  |  | 
3 | 66 | C[C@@H]1COCCN1c1cc(N2CCOCC2)c2c(F)cnc(-c3ccn[nH]3)c2n1 [Example 13] |  |  | 
4 | 89 | C[C@@H]1COCCN1c1cc(C2CC2)c2c(F)cnc(-c3ccn[nH]3)c2n1 [Example 9] |  |  | 
5 | 395 | C[C@@H]1COCCN1c1cc(-c2ncnn2C)c2c(F)cnc(-c3ccn[nH]3)c2n1 [Example 6] |  |  | 
6 | 475 | Cn1nccc1-c1cc(N2CC3CCC(C2)O3)nc2c(-c3ccn[nH]3)ncc(F)c12 [Example 29] | 5.34 | 64.5 | 
7 | 181 | CC(C)Oc1cc(N2CCOC[C@H]2C)nc2c(-c3ccn[nH]3)ncc(F)c12 [Example 8] | 3.79 | 75.9 | 
8 | 141 | C[C@@H]1COCCN1c1cc(-c2cnnn2C)c2c(F)cnc(-c3ccn[nH]3)c2n1 [Example 4] |  |  | 
9 | 129 | C[C@@H]1COCCN1c1cc(C2(O)CCOCC2)c2c(F)cnc(-c3ccn[nH]3)c2n1 [Example 12] |  |  | 
10 | 374 | C[C@@H]1COCCN1c1cc(N2CCC3(CNC3)C2)c2c(F)cnc(-c3ccn[nH]3)c2n1 [Example 27] | 8.45 | 78.3 | 
11 | 59 | C[C@@H]1COCCN1c1cc(-c2ccnc3[nH]ccc23)c2c(F)cnc(-c3ccn[nH]3)c2n1 [Example 24] | 9.72 | 88 | 
12 | 182 | Cc1noc(C)c1-c1cc(N2CCOC[C@H]2C)nc2c(-c3ccn[nH]3)ncc(F)c12 [Example 15] |  |  | 
13 | 80 | C[C@@H]1COCCN1c1cc(-c2ccncc2F)c2c(F)cnc(-c3ccn[nH]3)c2n1 [Example 22] |  |  | 
14 | 59 | C[C@@H]1COCCN1c1cc(C2CCOCC2)c2c(F)cnc(-c3ccn[nH]3)c2n1 [Example 11] |  |  | 
15 | 31 | Cc1cc(-c2cc(N3CCOC[C@H]3C)nc3c(-c4ccn[nH]4)ncc(F)c23)n(C)n1 [Example 16] | 12.3 | 97.5 | 
16 | 77 | Cc1ncccc1-c1cc(N2CCOC[C@H]2C)nc2c(-c3ccn[nH]3)ncc(F)c12 [Example 21] |  |  | 
17 | 146 | Cc1nnn(C)c1-c1cc(N2CCOC[C@H]2C)nc2c(-c3ccn[nH]3)ncc(F)c12 [Example 18] |  |  | 
18 | 82 | C[C@@H]1COCCN1c1cc(C2=CCOCC2)c2c(F)cnc(-c3ccn[nH]3)c2n1 [Example 10] |  |  | 
19 | 103 | Cc1nn(C)cc1-c1cc(N2CCOC[C@H]2C)nc2c(-c3ccn[nH]3)ncc(F)c12 [Example 14] |  |  | 
20 | 84 | C[C@@H]1COCCN1c1cc(-c2ccc(S(C)(=O)=O)cc2)c2c(F)cnc(-c3ccn[nH]3)c2n1 [Example 23] |  |  | 
21 | 64 | C[C@@H]1COCCN1c1cc(-c2ccnn2C)c2c(F)cnc(-c3ccn[nH]3)c2n1 [Example 1] | 10.8 | 98 | clearance ([3]; Intravenous injection (1 mg/kg), read-out: Clearance rate): 13.7 mL/min/kg; half-life ([3]; Intravenous injection (1 mg/kg), read-out: Half-life T1/2 (converted)): 31.7 min; AUC(0-t) ([3]; Oral (10 mg/kg), read-out: Area under the drug-time curve AUC0-24 h): 41.2 µM·h; Cmax ([3]; Oral (10 mg/kg), read-out: Maximum plasma drug concentration Cmax): 23.6 µM; TGI (%) [4]: 92.4%
22 | 61 | C[C@@H]1COCCN1c1cc(C2(C#N)CCOCC2)c2c(F)cnc(-c3ccn[nH]3)c2n1 [Example 3] | 4.52 | 93.2 | 
23 | 78 | Cc1cnn(C)c1-c1cc(N2CCOC[C@H]2C)nc2c(-c3ccn[nH]3)ncc(F)c12 [Example 2] |  |  | 

Row | Structure (SMILES) | IC50 [2] [nM] | inhibition at 0.0002 µM [1] [%] | inhibition at 0.025 µM [1] [%] | further results
24 | Cn1nccc1-c1cc(N2C3CCC2COC3)nc2c(-c3ccn[nH]3)ncc(F)c12 [Example 28] | 253 |  |  | 
